Results: paper PMC12794062, “Repositioning a Human Kinase Platelet-Derived Growth Factor Receptor Alpha Type II Inhibitor for Malaria and Inhibition of Hemozoin Formation” (ACS Medicinal Chemistry Letters, 2025)
Where “and” joins values, the source holds several entries; their conditions need not be identical. Identical values can stand only once. Like-named read-outs stand apart in the source and are kept apart here.

Legend:
[1] = test system: P. falciparum NF54; assay: In vitro asexual blood stage antiplasmodium activity (pLDH assay), drug sensitive NF54 strain; conditions: mean ± SD, n ≥ 2 independent experiments
[2] = test system: P. falciparum K1; assay: In vitro asexual blood stage antiplasmodium activity (pLDH assay), multidrug-resistant K1 strain; conditions: mean ± SD, n ≥ 2 independent experiments
[3] = test system: P. falciparum Dd2; assay: In vitro asexual blood stage antiplasmodium activity (pLDH assay), multidrug-resistant Dd2 strain; conditions: Plasmodium falciparum, DD2, read-out: Pf IC50 ± SD Dd2, asexual blood stage; mean ± SD, n ≥ 2 independent experiments
[4] = test system: β-hematin formation; assay: Cell-free β-hematin inhibition assay (NP-40 detergent-based); type: biochemical; conditions: 2 independent experiments, read-out: βH IC50 ± SD
[5] = test system: heme species (free heme, hemozoin) in NF54 parasites; assay: Cellular heme fractionation assay; type: cell-based, Plasmodium falciparum; conditions: 0.5× to 3× IC50, NF54 parasites
[6] = Solubility, miniaturised shake flask method, HPLC-DAD; type: physicochemical; conditions: aqueous solution, 25 °C, aqueous buffer, thermodynamic from solid; pH 6.5; footnote: thermodynamic solubility, title and text: kinetic
[7] = In vitro microsomal metabolic stability, human; type: in vitro ADME; conditions: both sexes, human liver microsomes, pH 7.4, read-out: CLint,app (h)
[8] = In vitro microsomal metabolic stability, rat; type: in vitro ADME; conditions: male, Sprague Dawley, rat liver microsomes, pH 7.4, read-out: CLint,app (r)
[9] = In vitro microsomal metabolic stability, mouse; type: in vitro ADME; conditions: male, CD1, mouse, mouse liver microsomes, pH 7.4; read-out: CLint,app (m)
[10] = In vitro cytotoxicity, MTT assay; conditions: Chinese hamster, Chinese Hamster Ovarian (CHO) cells
[11] = test system: Chinese Hamster Ovarian (CHO) cells; assay: In vitro cytotoxicity, MTT assay; conditions: CHO IC50/PfNF54 IC50
[12] = Plasmodium falciparum, NF54, read-out: Pf IC50 ± SD NF54, asexual blood stage
[13] = Plasmodium falciparum, K1, read-out: Pf IC50 ± SD K1, asexual blood stage
[14] = read-out: Pf IC50 ± SD K1, asexual blood stage

Row | Compound | IC50 [1, 12] | IC50 [2, 13] | IC50 [3] | IC50 [4] | further results
1 | Nc1cncc(/C=C/c2cncc(C(=O)NCCc3ccc(Cl)cc3Cl)c2)c1 [Compound 9] | 480 ± 260 nM | > 6000 nM |  |  | 
2 | Nc1ncncc1/C=C/c1cncc(C(=O)NCCc2ccc(Cl)cc2Cl)c1 [Compound 13] | 480 ± 350 nM |  | 1400 ± 50 nM |  | 
3 | Cc1cncc(/C=C/c2cncc(C(=O)NCCc3ccc(Cl)cc3Cl)c2)c1 [Compound 6] | 1180 ± 380 nM |  |  | 26000 ± 7000 nM | 
4 | Cc1ccc(N)c(/C=C/c2cncc(C(=O)NCCc3ccc(Cl)cc3Cl)c2)c1 [Compound 5] | 2600 ± 1470 nM |  |  | 18400 ± 200 nM | 
5 | O=C(NCCc1ccc(Cl)cc1Cl)c1cncc(/C=C/c2cccnc2)c1 [Compound 10] | 2630 ± 2270 nM |  |  | 15900 ± 100 nM | 
6 | O=C(NCCc1ccc(Cl)cc1Cl)c1cncc(/C=C/c2ccccc2)c1 [Compound 11] | 4280 nM |  |  | 22000 ± 2000 nM | IC50 ([1]; read-out: Pf IC50 ± SD NF54, asexual blood stage): 4820 ± 1550 nM
7 | Cc1cnc(N)c(/C=C/c2cncc(C(=O)NCCc3ccc(Cl)cc3)c2)c1 [Compound 18] |  | < 1000 nM |  | 15000 ± 2000 nM | IC50 [2, 14]: 720 ± 430 nM
8 | Cc1cnc(N)c(/C=C/c2cccc(C(=O)NCCc3ccc(Cl)cc3Cl)n2)c1 [Compound 26] | 780 ± 30 nM |  | 3190 ± 380 nM | 27000 ± 7000 nM | 
9 | Cc1cnc(N)c(/C=C/c2cncc(C(=O)NCCc3ccncc3)c2)c1 [Compound 24] | 2060 ± 690 nM |  |  | 62000 ± 5000 nM | 
10 | Nc1ccc(/C=C/c2cncc(C(=O)NCCc3ccc(Cl)cc3Cl)c2)cn1 [Compound 8] | 510 ± 420 nM |  | 2210 ± 1160 nM |  | 
11 | Cc1cnc(N)c(/C=C/c2cccc(C(=O)NCCc3ccc(Cl)cc3Cl)c2)c1 [Compound 27] | 620 ± 70 nM | 1650 ± 270 nM |  | 13000 ± 4000 nM | 
12 | Cc1cnc(N)c(/C=C/c2cscc2C(=O)NCCc2ccc(Cl)cc2Cl)c1 [Compound 28] | 590 ± 350 nM |  | 2360 ± 400 nM | 18000 ± 7000 nM | 
13 | Cc1cnc(N)c(/C=C/c2cncc(C(=O)NCCC3CCNCC3)c2)c1 [Compound 25] | > 6000 nM |  |  | 232000 ± 27000 nM | 

Further compounds by falling IC50 [1, 12], results first:

Row | IC50 [1, 12] | IC50 [2, 13] | IC50 [3] | IC50 [4] | Compound | further results
14 | 340 ± 240 nM | 960 ± 390 nM | 5470 ± 540 nM | 17900 ± 200 nM | Nc1ncccc1/C=C/c1cncc(C(=O)NCCc2ccc(Cl)cc2Cl)c1 [Compound 7] | 
15 | 320 ± 60 nM | < 1000 nM | < 1000 nM |  | Cc1cnc(N)c(/C=C/c2cncc(C(=O)NCCc3ccccc3)c2)c1 [Compound 19] | IC50 [2, 14]: 580 ± 160 nM
16 | 220 ± 30 nM | 590 ± 40 nM |  | 13000 ± 2000 nM | Cc1cnc(N)c(/C=C/c2cncc(C(=O)NCCc3ccc(Cl)cc3Cl)c2)c1 [Compound 4] | free heme, dose response [5]: dose-dependent increase in free heme; hemozoin, dose response [5]: decrease in hemozoin
17 | 200 ± 60 nM |  | 350 ± 50 nM | < 10000 nM and 8000 nM | Cc1cnc(N)c(/C=C/c2cncc(C(=O)Nc3ccc(Cl)cc3Cl)c2)c1 [Compound 22] | 
18 | 160 ± 70 nM | 250 ± 120 nM | 190 ± 110 nM |  | Cc1cnc(N)c(/C=C/c2cncc(C(=O)NCc3ccc(Cl)cc3Cl)c2)c1 [Compound 20] | 
19 | 140 nM |  | 920 ± 50 nM |  | Nc1ccncc1/C=C/c1cncc(C(=O)NCCc2ccc(Cl)cc2Cl)c1 [Compound 12] | 
20 | 140 ± 20 nM |  | 190 nM |  | Cc1cnc(N)c(/C=C/c2cncc(C(=O)Nc3ccc(Cl)cc3)c2)c1 [Compound 23] | solubility thermodynamic at 20 h [6]: < 5 µM; CLint scaled at 1 µM [7]: 64 mL/min/kg; CLint scaled at 1 µM [8]: 62 mL/min/kg; CLint scaled at 1 µM [9]: 153 mL/min/kg; IC50 [10]: 21000 nM; selectivity index [SI] [11]: 150
21 | 90 nM | 460 ± 170 nM |  | < 10000 nM and 5000 nM | Cc1cnc(N)c(/C=C/c2cncc(C(=O)NCc3cc(Cl)cc(Cl)c3)c2)c1 [Compound 21] | 
